The values that follow come from PubChem BioAssay AID192 (DTP/NCI, 2004).

The subject of the test is BDF1 mice, B16 melanoma ip, median survival T/C. Put plainly: NCI In Vivo Anticancer Drug Screen. Data for tumor model B16 Melanoma (intraperitoneal) in B6D2F1 (BDF1) mice. As to conditions: endpoint: median survival time, higher = longer survival. In short, it runs like this:
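Transplantable tumor model; survival or tumor size measured; reported as T/C, treated over vehicle control.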

Where [1] appears, read: dose: 6.25 mg/kg/injection, schedule: Q01DX009 (ip), vehicle: saline with Tween-80.
Where [2] appears, read: dose: 12.5 mg/kg/injection, schedule: Q01DX009 (ip), vehicle: saline with Tween-80.
Where [3] appears, read: dose: 25.0 mg/kg/injection, schedule: Q01DX009 (ip), vehicle: saline with Tween-80.
The mark [4] stands for this setting: dose: 50.0 mg/kg/injection, schedule: Q01DX009 (ip), vehicle: saline with Tween-80.
Where [5] appears, read: dose: 20.0 mg/kg/injection, schedule: Q01DX009 (ip), vehicle: saline with Tween-80.
The mark [6] stands for this setting: dose: 40.0 mg/kg/injection, schedule: Q01DX009 (ip), vehicle: saline with Tween-80.
Where [7] appears, read: dose: 100.0 mg/kg/injection, schedule: Q01DX009 (ip), vehicle: saline with Tween-80.
Setting [8] is: dose: 100.0 mg/kg/injection, schedule: Q04DX003 (ip), vehicle: saline with Tween-80.
The mark [9] stands for this setting: dose: 200.0 mg/kg/injection, schedule: Q04DX003 (ip), vehicle: saline with Tween-80.
[10] abbreviates: dose: 50.0 mg/kg/injection, schedule: Q01DX009 (ip), vehicle: Klucel (hydroxypropylcellulose) (HPC).
[11] abbreviates: dose: 100.0 mg/kg/injection, schedule: Q01DX009 (ip), vehicle: Klucel (hydroxypropylcellulose) (HPC).
Setting [12] is: dose: 200.0 mg/kg/injection, schedule: Q01DX009 (ip), vehicle: Klucel (hydroxypropylcellulose) (HPC).
[13] abbreviates: dose: 12.5 mg/kg/injection, schedule: Q01DX009 (ip), vehicle: saline.
The mark [14] stands for this setting: dose: 25.0 mg/kg/injection, schedule: Q01DX009 (ip), vehicle: saline.
Where [15] appears, read: dose: 25.0 mg/kg/injection, schedule: Q01DX009 (ip), vehicle: Klucel (hydroxypropylcellulose) (HPC).
Where [16] appears, read: dose: 50.0 mg/kg/injection, schedule: Q01DX009 (ip), vehicle: saline.
[17] abbreviates: dose: 100.0 mg/kg/injection, schedule: Q01DX009 (ip), vehicle: saline.

“And” between values parts separate entries of the source, which are not always exact repeats. Equal values may be shown once. Toxic doses and inconclusive results are not listed.

For the compound `O=C(Nc1ccccc1C(F)(F)F)c1cccc(C(=O)Nc2ccccc2C(F)(F)F)c1`, the T/C runs as follows: (dose: 100.0 mg/kg/injection, schedule: Q04DX003 (ip), vehicle: carboxymethylcellulose (CMC)) 100 % of control; (dose: 200.0 mg/kg/injection, schedule: Q04DX003 (ip), vehicle: carboxymethylcellulose (CMC)) 91 % of control.
As for `CCCCCNC(=O)Nc1cccc(Cl)c1C`, the T/C runs as follows: under setting [1], 91 % of control; under setting [2], 104 % of control; under setting [3], 100 % of control; under setting [4], 89 % of control and 103 % of control.
Consider `OCc1cc2c([nH]c3ccccc32)c(C(O)CO)n1` (stereo not drawn), for which the T/C under setting [5] was 102 % of control; the T/C under setting [6] was 99 % of control; the T/C (dose: 80.0 mg/kg/injection, schedule: Q01DX009 (ip), vehicle: saline with Tween-80) was 97 % of control.
Consider `COC(=O)CC(=O)C=P(c1ccccc1)(c1ccccc1)c1ccccc1`, for which the T/C was 98 % of control under setting [2], 103 % of control under setting [3], 107 % of control under setting [4] and 113 % of control under setting [7].
Regarding `CC1=NN(c2ccccc2)C(=O)C1N=Nc1ccccc1S(=O)(=O)O` (stereo not drawn), under setting [4], the T/C was 90 % of control.
Regarding `NS(=O)(=O)OCCCCCCCOS(N)(=O)=O`, the T/C under setting [3] is 150 % of control and the T/C under setting [4] was 181 % of control.
For the compound `CCOC(=O)NC1CCC1NC(=O)OCC` (stereo not drawn), the T/C is, setting by setting: under setting [8], 92 % of control; under setting [9], 95 % of control.
`C[CH2][Pb]([CH2]C)([CH2]C)[N]1C(=O)c2ccccc2C1=O`: the T/C is 112 % of control (dose: 1.56 mg/kg/injection, schedule: Q01DX009 (ip), vehicle: Klucel (hydroxypropylcellulose) (HPC)) and 109 % of control (dose: 3.12 mg/kg/injection, schedule: Q01DX009 (ip), vehicle: Klucel (hydroxypropylcellulose) (HPC)).
Take `C=C1C(=O)OC2C=C(C)CC3C=C(CCC=C(C)CCC12)C(=O)O3` (stereo not drawn): the T/C is, setting by setting: (dose: 4.0 mg/kg/injection, schedule: Q01DX009 (ip), vehicle: Klucel (hydroxypropylcellulose) (HPC)) 90 % of control; (dose: 8.0 mg/kg/injection, schedule: Q01DX009 (ip), vehicle: Klucel (hydroxypropylcellulose) (HPC)) 105 % of control; (dose: 16.0 mg/kg/injection, schedule: Q01DX009 (ip), vehicle: Klucel (hydroxypropylcellulose) (HPC)) 116 % of control; (dose: 32.0 mg/kg/injection, schedule: Q01DX009 (ip), vehicle: Klucel (hydroxypropylcellulose) (HPC)) 101 % of control.
As for `Cc1c(C(=O)O)cc2n(c1=O)Cc1cc3ccccc3nc1-2`, the T/C was 102 % of control (dose: 25.0 mg/kg/injection, schedule: Q04DX003 (ip), vehicle: Klucel (hydroxypropylcellulose) (HPC)); 94 % of control (dose: 50.0 mg/kg/injection, schedule: Q04DX003 (ip), vehicle: Klucel (hydroxypropylcellulose) (HPC)); 89 % of control (dose: 100.0 mg/kg/injection, schedule: Q04DX003 (ip), vehicle: Klucel (hydroxypropylcellulose) (HPC)); 100 % of control under setting [8].
As for `O=[N+]([O-])O.[NH-]C1CCCCC1[NH-].[NH-]C1CCCCC1[NH-].[OH-].[OH-].[Pt+4].[Pt+4]` (stereo not drawn), the T/C (dose: 0.25 mg/kg/injection, schedule: Q01DX009 (ip), vehicle: water) was 110 % of control and 111 % of control; the T/C (dose: 0.5 mg/kg/injection, schedule: Q01DX009 (ip), vehicle: water) is 120 % of control and 124 % of control.
For `Nc1nc(N)c2nc(CN(CCO)c3ccc(C(=O)NC(CCC(=O)O)C(=O)O)cc3)cnc2n1` (stereo not drawn), the T/C is 107 % of control (dose: 0.1 mg/kg/injection, schedule: Q01DX009 (ip), vehicle: Klucel (hydroxypropylcellulose) (HPC)); 101 % of control (dose: 0.2 mg/kg/injection, schedule: Q01DX009 (ip), vehicle: Klucel (hydroxypropylcellulose) (HPC)); 99 % of control (dose: 0.37 mg/kg/injection, schedule: Q01DX009 (ip), vehicle: Klucel (hydroxypropylcellulose) (HPC)); 109 % of control (dose: 0.75 mg/kg/injection, schedule: Q01DX009 (ip), vehicle: Klucel (hydroxypropylcellulose) (HPC)); 157 % of control (dose: 1.0 mg/kg/injection, schedule: Q01DX009 (ip), vehicle: Klucel (hydroxypropylcellulose) (HPC)); 97 % of control (dose: 1.5 mg/kg/injection, schedule: Q01DX009 (ip), vehicle: Klucel (hydroxypropylcellulose) (HPC)).
As to `CCC(C)C(C(=O)O)c1ccccc1` (stereo not drawn), the T/C is, setting by setting: under setting [7], 107 % of control; (dose: 200.0 mg/kg/injection, schedule: Q01DX009 (ip), vehicle: saline with Tween-80) 99 % of control; (dose: 400.0 mg/kg/injection, schedule: Q01DX009 (ip), vehicle: saline with Tween-80) 93 % of control.
For `O=C(O)CCC(NC(=O)OCc1ccccc1)C(=O)OCc1ccccc1` (stereo not drawn), the T/C by setting is: under setting [10], 86 % of control; under setting [11], 86 % of control; under setting [12], 96 % of control.
For `F`, the T/C by setting is: (dose: 6.25 mg/kg/injection, schedule: Q01DX009 (ip), vehicle: saline) 105 % of control; under setting [13], 107 % of control; (dose: 12.5 mg/kg/injection, schedule: Q04DX003 (ip), vehicle: saline) 113 % of control; under setting [14], 92 % of control; (dose: 25.0 mg/kg/injection, schedule: Q04DX003 (ip), vehicle: saline) 100 % of control and 124 % of control; (dose: 50.0 mg/kg/injection, schedule: Q04DX003 (ip), vehicle: saline) 94 % of control.
For the compound `CC1C2Cc3ccc(O)cc3C1(C)CCN2CC1CC1` (stereo not drawn), the T/C is 100 % of control under setting [15], 94 % of control under setting [10] and 95 % of control under setting [11].
For `[N-]=[N+]=C1Cc2ccccc2C1=O`, the T/C is, setting by setting: under setting [11], 97 % of control; under setting [12], 105 % of control.
With `COC(=O)C1(C(=O)OC)CC1CCl` (stereo not drawn), the T/C is 90 % of control under setting [8] and 96 % of control under setting [9].
On to `O=C(Nc1ccccc1F)Nc1ccccc1Cl`, for which the T/C is 96 % of control under setting [15], 92 % of control under setting [10], 92 % of control under setting [11] and 95 % of control under setting [12].
Turning to `NCCC(=O)OC1CCCc2c(O)c3c(c(O)c21)C(=O)c1ccccc1C3=O` (stereo not drawn), the T/C runs as follows: under setting [13], 96 % of control; under setting [14], 100 % of control; under setting [16], 93 % of control.
Consider `CC(=O)CC(=O)Nc1ccc(C)c(C)c1`, for which the T/C reads like this: under setting [17], 92 % of control; (dose: 200.0 mg/kg/injection, schedule: Q01DX009 (ip), vehicle: saline) 89 % of control; (dose: 400.0 mg/kg/injection, schedule: Q01DX009 (ip), vehicle: saline) 94 % of control.
For `CCOC(=O)C(=CNc1cccc(N)n1)C(=O)OCC`, the T/C is, setting by setting: under setting [11], 107 % of control; under setting [12], 111 % of control; (dose: 400.0 mg/kg/injection, schedule: Q01DX009 (ip), vehicle: Klucel (hydroxypropylcellulose) (HPC)) 94 % of control.
As for `CN(C)C1=NC(=O)C(c2ccccc2)O1` (stereo not drawn), the T/C under setting [13] is 117 % of control, the T/C under setting [14] is 105 % of control, the T/C under setting [16] is 111 % of control and the T/C under setting [17] is 114 % of control.
Take `COc1ccc2nc3cc(Cl)ccc3c(NCCO)c2c1`: the T/C by setting is: (dose: 37.5 mg/kg/injection, schedule: Q01DX009 (ip), vehicle: saline with Tween-80) 104 % of control; (dose: 75.0 mg/kg/injection, schedule: Q01DX009 (ip), vehicle: saline with Tween-80) 106 % of control.
Turning to `COc1c2ccoc2c(OCC=C(C)C)c2oc(=O)ccc12`, the T/C runs as follows: under setting [8], 94 % of control; under setting [9], 105 % of control; (dose: 400.0 mg/kg/injection, schedule: Q04DX003 (ip), vehicle: saline with Tween-80) 97 % of control.
`OCC#CCOCC(O)CCl` (stereo not drawn): the T/C is, setting by setting: (dose: 25.0 mg/kg/injection, schedule: Q01DX009 (ip), vehicle: water) 102 % of control; (dose: 50.0 mg/kg/injection, schedule: Q01DX009 (ip), vehicle: water) 98 % of control; (dose: 100.0 mg/kg/injection, schedule: Q01DX009 (ip), vehicle: water) 92 % of control.
With `CC(C)CC(NC(=O)CCl)C(=O)O` (stereo not drawn), the T/C is 110 % of control under setting [1], 95 % of control under setting [2] and 95 % of control under setting [3].
In the case of `BrCC(Br)CBr`, the T/C reads like this: under setting [3], 92 % of control; under setting [4], 90 % of control; under setting [7], 90 % of control.
Regarding `COc1ccccc1CC(C)N` (stereo not drawn), the T/C under setting [5] is 97 % of control and the T/C under setting [6] was 95 % of control.
